Experimental data taken from patent EP0007672A1, “Isocyanoalkenes, process and useful intermediates for their preparation, pharmaceutical and fungicidal preparations containing those isocyanoalkenes and the use of the fungicidal preparations in agriculture” (GIST-BROCADES N.V., priority 1978, dated 1980).
Converted amounts (≈) assume the structure as drawn. Like-named read-outs stand apart in the source and are kept apart here. Values belong to the molecule of their own block, whether it stands above or below them.

Assays:
Assay in all cases: MIC (Minimum Inhibitory Concentration)
Format in all cases: cell-based
Candida albicans = tested on: Candida albicans
Excerpt: (§1) In addition they may be used for combatting plant diseases, in particular as fungicides. A list of MIC (Minimum Inhibitory Concentration) values for a number of microorganisms is listed herebelow. The figures in the column headings refer to the compounds prepared according to the experimental examples in comparison with the spectrum of 1-[2-(2,4-dichlorophenyl)-2-{(2,4-dichlorophenyl)-methoxy} -ethyl7-1H-imidazole (better known under the name of miconazole, c.f. Merck Index 9th Ed. page 6047) or natamycin (pimaricin, c.f. Merck Index 9th Ed. page 7233).

Pasteurella multocida = details: read-out: MIC values
Excerpt: as §1

[1] = tested on: Streptococcus haemolyticus; details: read-out: MIC values
Excerpt: as §1

Trichophyton equinum = tested on: Trichophyton equinum
Excerpt: as §1

[2] = tested on: Trichophyton mentagrophytus
Excerpt: as §1

Trichophyton quickeaneum = details: read-out: MIC values
Excerpt: as §1

Trichophyton rubrum = tested on: Trichophyton rubrum
Excerpt: as §1

[3] = tested on: Trichophyton schoenleinii; details: read-out: MIC values
Excerpt: as §1

Trichophyton tonsurans = details: read-out: MIC values
Excerpt: as §1

Trichophyton verrucosum = tested on: Trichophyton verrucosum
Excerpt: as §1

Trichophyton violoceum = details: read-out: MIC values
Excerpt: as §1

[4] = read-out: MIC values, Candida albicans A 7
[5] = read-out: MIC values, Candida albicans A 3140
[6] = read-out: MIC values, Candida albicans A 3141
[7] = read-out: MIC values, Candida albicans A 3142
[8] = read-out: MIC values, Candida albicans A 3143
[9] = read-out: MIC values, Candida albicans A 3144
[10] = read-out: MIC values, Candida albicans A 3145
[11] = read-out: MIC values, Candida albicans A 3165
[12] = read-out: MIC values, Candida albicans A 3166
[13] = read-out: MIC values, Candida albicans A 3167
[14] = read-out: MIC values, Candida albicans A 3168
[15] = read-out: MIC values, Candida albicans A 3169
[16] = read-out: MIC values, Candida albicans A 3171
[17] = read-out: MIC values, Candida albicans A 3184
[18] = read-out: MIC values, Candida albicans A 3190
[19] = read-out: MIC values, Candida albicans A 3191
[20] = read-out: MIC values, Candida albicans A 3192
[21] = read-out: MIC values, Candida albicans A 3194
[22] = read-out: MIC values, Candida albicans A 3196
[23] = read-out: MIC values, Trichophyton equinum 182-76
[24] = read-out: MIC values, Trichophyton equinum 441-51
[25] = read-out: MIC values, Trichophyton mentagrophytus 367-68
[26] = read-out: MIC values, Trichophyton mentagrophytus 421-67
[27] = read-out: MIC values, Trichophyton mentagrophytus A 3252
[28] = read-out: MIC values, Trichophyton mentagrophytus R 177
[29] = read-out: MIC values, Trichophyton mentagrophytus R 178
[30] = read-out: MIC values, Trichophyton rubrum 218-65
[31] = read-out: MIC values, Trichophyton rubrum 494-62
[32] = read-out: MIC values, Trichophyton rubrum A 810
[33] = read-out: MIC values, Trichophyton verrucosum 134-66
[34] = read-out: MIC values, Trichophyton verrucosum A 2922

SMILES: [C-]#[N+]C(=C1CCOCC1)S(=O)(=O)c1ccc(C)cc1 [Example 14a, a-(tetrahydropyran-4-ylidene)-a-(4-toluenesulphonyl)-methyl-isocyanide]
- MIC (Candida albicans; [4]): 12.5 µg/mL (≈ 45.1 µM)
- MIC (Candida albicans; [5]): 12.5 µg/mL (≈ 45.1 µM)
- MIC (Candida albicans; [6]): 12.5 µg/mL (≈ 45.1 µM)
- MIC (Candida albicans; [7]): 12.5 µg/mL (≈ 45.1 µM)
- MIC (Candida albicans; [8]): 12.5 µg/mL (≈ 45.1 µM)
- MIC (Candida albicans; [9]): 25 µg/mL (≈ 90.1 µM)
- MIC (Candida albicans; [10]): 12.5 µg/mL (≈ 45.1 µM)
- MIC (Candida albicans; [11]): 12.5 µg/mL (≈ 45.1 µM)
- MIC (Candida albicans; [12]): 6 µg/mL (≈ 21.6 µM)
- MIC (Candida albicans; [13]): 6 µg/mL (≈ 21.6 µM)
- MIC (Candida albicans; [14]): 6 µg/mL (≈ 21.6 µM)
- MIC (Candida albicans; [15]): 6 µg/mL (≈ 21.6 µM)
- MIC (Candida albicans; [16]): 6 µg/mL (≈ 21.6 µM)
- MIC (Candida albicans; [17]): 12.5 µg/mL (≈ 45.1 µM)
- MIC (Candida albicans; [18]): 12.5 µg/mL (≈ 45.1 µM)
- MIC (Candida albicans; [19]): 12.5 µg/mL (≈ 45.1 µM)
- MIC (Candida albicans; [20]): 12.5 µg/mL (≈ 45.1 µM)
- MIC (Candida albicans; [21]): 12.5 µg/mL (≈ 45.1 µM)
- MIC (Candida albicans; [22]): 12.5 µg/mL (≈ 45.1 µM)
- MIC (Pasteurella multocida; Pasteurella multocida): 6 µg/mL (≈ 21.6 µM)
- MIC ([1]; Streptococcus): 25 µg/mL (≈ 90.1 µM)
- MIC (Trichophyton equinum; [23]): 25 µg/mL (≈ 90.1 µM)
- MIC (Trichophyton equinum; [24]): 6 µg/mL (≈ 21.6 µM)
- MIC [2, 25]: 25 µg/mL (≈ 90.1 µM)
- MIC [2, 26]: 25 µg/mL (≈ 90.1 µM)
- MIC [2, 27]: 25 µg/mL (≈ 90.1 µM)
- MIC [2, 28]: 12.5 µg/mL (≈ 45.1 µM)
- MIC [2, 29]: 100 µg/mL (≈ 361 µM)
- MIC (Trichophyton quickeaneum; Trichophyton): 25 µg/mL (≈ 90.1 µM)
- MIC (Trichophyton rubrum; [30]): 3 µg/mL (≈ 10.8 µM)
- MIC (Trichophyton rubrum; [31]): 25 µg/mL (≈ 90.1 µM)
- MIC (Trichophyton rubrum; [32]): 12.5 µg/mL (≈ 45.1 µM)
- MIC ([3]; Trichophyton schoenleinii): 6 µg/mL (≈ 21.6 µM)
- MIC (Trichophyton tonsurans; Trichophyton tonsurans): 0.75 µg/mL (≈ 2.7 µM)
- MIC (Trichophyton verrucosum; [33]): 3 µg/mL (≈ 10.8 µM)
- MIC (Trichophyton verrucosum; [34]): 3 µg/mL (≈ 10.8 µM)
- MIC (Trichophyton violoceum; Trichophyton): 12.5 µg/mL (≈ 45.1 µM)

- MIC (Candida albicans; Candida albicans A 7, read-out: MIC values): 6 µg/mL (≈ 21.6 µM)
- MIC (Candida albicans; Candida albicans A 3140, read-out: MIC values): 6 µg/mL (≈ 21.6 µM)
- MIC (Candida albicans; Candida albicans A 3141, read-out: MIC values): 12.5 µg/mL (≈ 45.1 µM)
- MIC (Candida albicans; Candida albicans A 3142, read-out: MIC values): 6 µg/mL (≈ 21.6 µM)
- MIC (Candida albicans; Candida albicans A 3143, read-out: MIC values): 6 µg/mL (≈ 21.6 µM)
- MIC (Candida albicans; Candida albicans A 3144, read-out: MIC values): 25 µg/mL (≈ 90.1 µM)
- MIC (Candida albicans; Candida albicans A 3145, read-out: MIC values): 12.5 µg/mL (≈ 45.1 µM)
- MIC (Candida albicans; Candida albicans A 3165, read-out: MIC values): 6 µg/mL (≈ 21.6 µM)
- MIC (Candida albicans; Candida albicans A 3166, read-out: MIC values): 6 µg/mL (≈ 21.6 µM)
- MIC (Candida albicans; Candida albicans A 3167, read-out: MIC values): 6 µg/mL (≈ 21.6 µM)
- MIC (Candida albicans; Candida albicans A 3168, read-out: MIC values): 6 µg/mL (≈ 21.6 µM)
- MIC (Candida albicans; Candida albicans A 3169, read-out: MIC values): 6 µg/mL (≈ 21.6 µM)
- MIC (Candida albicans; Candida albicans A 3171, read-out: MIC values): 6 µg/mL (≈ 21.6 µM)
- MIC (Candida albicans; Candida albicans A 3184, read-out: MIC values): 6 µg/mL (≈ 21.6 µM)
- MIC (Candida albicans; Candida albicans A 3190, read-out: MIC values): 12.5 µg/mL (≈ 45.1 µM)
- MIC (Candida albicans; Candida albicans A 3191, read-out: MIC values): 25 µg/mL (≈ 90.1 µM)
- MIC (Candida albicans; Candida albicans A 3192, read-out: MIC values): 6 µg/mL (≈ 21.6 µM)
- MIC (Candida albicans; Candida albicans A 3194, read-out: MIC values): 12.5 µg/mL (≈ 45.1 µM)
- MIC (Candida albicans; Candida albicans A 3196, read-out: MIC values): 25 µg/mL (≈ 90.1 µM)
- MIC (Pasteurella multocida; Pasteurella multocida A 723): 6 µg/mL (≈ 21.6 µM)
- MIC (Trichophyton equinum; Trichophyton equinum 182-76, read-out: MIC values): 25 µg/mL (≈ 90.1 µM)
- MIC (Trichophyton equinum; Trichophyton equinum 441-51, read-out: MIC values): 3 µg/mL (≈ 10.8 µM)
- MIC ([2]; Trichophyton mentagrophytus 367-68, read-out: MIC values): 25 µg/mL (≈ 90.1 µM)
- MIC ([2]; Trichophyton mentagrophytus 421-67, read-out: MIC values): 25 µg/mL (≈ 90.1 µM)
- MIC ([2]; Trichophyton mentagrophytus A 3252, read-out: MIC values): 25 µg/mL (≈ 90.1 µM)
- MIC ([2]; Trichophyton mentagrophytus R 177, read-out: MIC values): 25 µg/mL (≈ 90.1 µM)
- MIC ([2]; Trichophyton mentagrophytus R 178, read-out: MIC values): 50 µg/mL (≈ 180 µM)
- MIC (Trichophyton quickeaneum; Trichophyton quickeaneum A 2040): 25 µg/mL (≈ 90.1 µM)
- MIC (Trichophyton rubrum; Trichophyton rubrum 218-65, read-out: MIC values): 3 µg/mL (≈ 10.8 µM)
- MIC (Trichophyton rubrum; Trichophyton rubrum 494-62, read-out: MIC values): 25 µg/mL (≈ 90.1 µM)
- MIC (Trichophyton rubrum; Trichophyton rubrum A 810, read-out: MIC values): 12.5 µg/mL (≈ 45.1 µM)
- MIC ([3]; Trichophyton schoenleinii 435-63): 6 µg/mL (≈ 21.6 µM)
- MIC (Trichophyton tonsurans; Trichophyton tonsurans 561-50): 0.4 µg/mL (≈ 1.44 µM)
- MIC (Trichophyton verrucosum; Trichophyton verrucosum 134-66, read-out: MIC values): 3 µg/mL (≈ 10.8 µM)
- MIC (Trichophyton verrucosum; Trichophyton verrucosum A 2922, read-out: MIC values): 1.5 µg/mL (≈ 5.41 µM)
- MIC (Trichophyton violoceum; Trichophyton violoceum 442-62): 12.5 µg/mL (≈ 45.1 µM)
SMILES: [C-]#[N+]C(C1=CCOCC1)S(=O)(=O)c1ccc(C)cc1 (stereo not drawn) [Example 14b, α-(2,3-dihydro-6H-pyran-4-yl)-a-(4-toluenesulphonyl)-methylisocyanide]
- MIC ([1]; Streptococcus haemolyticus A 1088): 100 µg/mL (≈ 361 µM)

SMILES: [C-]#[N+]C(=C1CCSCC1)S(=O)(=O)c1ccc(C)cc1 [Example 16a, a-(thian-4-ylidene)-a-(4-toluenesulphonyl)-methylisocyanide]
- MIC (Candida albicans; [4]): 6 µg/mL (≈ 20.4 µM)
- MIC (Candida albicans; [5]): 6 µg/mL (≈ 20.4 µM)
- MIC (Candida albicans; [6]): 6 µg/mL (≈ 20.4 µM)
- MIC (Candida albicans; [7]): 6 µg/mL (≈ 20.4 µM)
- MIC (Candida albicans; [8]): 12.5 µg/mL (≈ 42.6 µM)
- MIC (Candida albicans; [9]): 12.5 µg/mL (≈ 42.6 µM)
- MIC (Candida albicans; [10]): 12.5 µg/mL (≈ 42.6 µM)
- MIC (Candida albicans; [11]): 6 µg/mL (≈ 20.4 µM)
- MIC (Candida albicans; [12]): 3 µg/mL (≈ 10.2 µM)
- MIC (Candida albicans; [13]): 3 µg/mL (≈ 10.2 µM)
- MIC (Candida albicans; [14]): 3 µg/mL (≈ 10.2 µM)
- MIC (Candida albicans; [15]): 12.5 µg/mL (≈ 42.6 µM)
- MIC (Candida albicans; [16]): 6 µg/mL (≈ 20.4 µM)
- MIC (Candida albicans; [17]): 12.5 µg/mL (≈ 42.6 µM)
- MIC (Candida albicans; [18]): 25 µg/mL (≈ 85.2 µM)
- MIC (Candida albicans; [19]): 25 µg/mL (≈ 85.2 µM)
- MIC (Candida albicans; [20]): 25 µg/mL (≈ 85.2 µM)
- MIC (Candida albicans; [21]): 25 µg/mL (≈ 85.2 µM)
- MIC (Candida albicans; [22]): 25 µg/mL (≈ 85.2 µM)
- MIC (Pasteurella multocida; Pasteurella multocida): 6 µg/mL (≈ 20.4 µM)
- MIC ([1]; Streptococcus): 25 µg/mL (≈ 85.2 µM)
- MIC (Trichophyton equinum; [23]): 25 µg/mL (≈ 85.2 µM)
- MIC (Trichophyton equinum; [24]): 3 µg/mL (≈ 10.2 µM)
- MIC [2, 25]: 25 µg/mL (≈ 85.2 µM)
- MIC [2, 26]: 50 µg/mL (≈ 170 µM)
- MIC [2, 27]: 25 µg/mL (≈ 85.2 µM)
- MIC [2, 28]: 12.5 µg/mL (≈ 42.6 µM)
- MIC [2, 29]: 100 µg/mL (≈ 341 µM)
- MIC (Trichophyton quickeaneum; Trichophyton): 12.5 µg/mL (≈ 42.6 µM)
- MIC (Trichophyton rubrum; [30]): 6 µg/mL (≈ 20.4 µM)
- MIC (Trichophyton rubrum; [31]): 25 µg/mL (≈ 85.2 µM)
- MIC (Trichophyton rubrum; [32]): 3 µg/mL (≈ 10.2 µM)
- MIC ([3]; Trichophyton schoenleinii): 6 µg/mL (≈ 20.4 µM)
- MIC (Trichophyton tonsurans; Trichophyton tonsurans): 0.4 µg/mL (≈ 1.36 µM)
- MIC (Trichophyton verrucosum; [33]): 3 µg/mL (≈ 10.2 µM)
- MIC (Trichophyton verrucosum; [34]): 1.5 µg/mL (≈ 5.11 µM)
- MIC (Trichophyton violoceum; Trichophyton): 6 µg/mL (≈ 20.4 µM)
